Results on 40 molecules are retold here after US7348350B2, “Pyrazolyl biphenyl carboxamides and the use thereof for controlling undesirable microorganisms” (Bayer CropScience AG, priority 2000, dated 2008).

SMILES strings stand for the structures.

One data set has as its system Venturia inaequalis. Nature of the data set: Venturia test (apple)/protective. It is filed as in vivo. Conditions: 288 h, protective, application rate 100 g/ha, evaluation 12 days after inoculation, read-out: % efficacy. The protocol:
To produce a suitable preparation of active compound, 1 part by weight of active compound is mixed with the stated amount of solvent and emulsifier, and the concentrate is diluted with water to the desired concentration.
To test for protective activity, young plants are sprayed with the preparation of active compound at the stated application rate. After the spray coating has dried on, the plants are inoculated with an aqueous conidia suspension of the apple scab pathogen Venturia inaequalis and then remain in an incubation cabin at approximately 20° C. and 100% relative atmospheric humidity for 1 day.
The plants are then placed in a greenhouse at approximately 21° C. and a relative atmospheric humidity of approximately 90%.
Evaluation is carried out 12 days after the inoculation. 0% means an efficacy which corresponds to that of the control, whereas an efficacy of 100% means that no infection is observed.

The next data set has as its system Podosphaera leucotricha. Nature of the data set: Podosphaera test (apple)/protective. It is filed as in vivo. Conditions: 240 h, protective, application rate 100 g/ha, evaluation 10 days after inoculation, read-out: % efficacy. As for the experimental part:
(§1) To produce a suitable preparation of active compound, 1 part by weight of active compound is mixed with the stated amounts of solvent and emulsifier, and the concentrate is diluted with water to the desired concentration.
To test for protective activity, young plants are sprayed with the preparation of active compound at the stated application rate. After the spray coating has dried on, the plants are inoculated with an aqueous spore suspension of the apple mildew pathogen Podosphaera leucotricha. The plants are then placed in a greenhouse at approximately 23° C. and a relative atmospheric humidity of approximately 70%.
(§2) Evaluation is carried out 10 days after the inoculation. 0% means an efficacy which corresponds to that of the control, whereas an efficacy of 100% means that no infection is observed.

Data set [1] can be described thus: logP by HPLC on reversed-phase column (C 18), EEC Directive 79/831 Annex V.A8. It is filed as physicochemical. The note with it: reversed-phase HPLC column (C 18). As for the experimental part: The logP values given in the Preparation Examples and Tables above were determined in accordance with EEC Directive 79/831 Annex V.A8 by HPLC (High Performance Liquid Chromatography) on a reversed-phase column (C 18). Temperature: 43° C.
In the acidic range, the determination was carried out at pH 2.3 using the mobile phases 0.1% aqueous phosphoric acid and acetonitrile; linear gradient from 10% acetonitrile to 90% acetonitrile (marked ^a) in the Table).
In the neutral range, the determination was carried out at pH 7.5 using the mobile phases 0.01 molar aqueous phosphate buffer solution and acetonitrile; linear gradient from 10% acetonitrile to 90% acetonitrile (marked ^b) in the Table).

For a further data set, the system named is Sphaerotheca fuiginea. Nature of the data set: Sphaerotheca test (cucumber)/protective. The class given is in vivo. Conditions: Cucumis sativus, 240 h, protective, application rate 100 g/ha, evaluation 10 days after inoculation, read-out: % efficacy. The protocol: as §1
To test for protective activity, young plants are sprayed with the preparation of active compound at the stated application rate. After the spray coating has dried on, the plants are inoculated with an aqueous spore suspension of Sphaerotheca fuiginea. The plants are then placed in a greenhouse at approximately 23° C. and a relative atmospheric humidity of approximately 70%.
as §2

The next data set relates to Puccinia recondita. Nature of the data set: Puccinia test (wheat)/protective. It is filed as in vivo. The note with it: protective, application rate 250 g/ha, evaluation 10 days after inoculation. The protocol:
as §1
To test for protective activity, young plants are sprayed with the preparation of active compound at the stated application rate. After the spray coating has dried on, the plants are sprayed with a conidia suspension of Puccinia recondita. The plants remain in an incubation cabin at 20° C. and 100% relative atmospheric humidity for 48 hours.
The plants are then placed in a greenhouse at a temperature of approximately 20° C. and a relative atmospheric humidity of 80% to promote the development of rust pustules.
as §2

Where [2] appears, read: acidic range, pH 2.3, 0.1% aqueous phosphoric acid and acetonitrile, 43° C. (marked a).

In general, chromatographic logP refers to lipophilicity estimated from chromatographic retention. Higher therefore signals a more lipophilic compound. Regarding `CO/N=C/c1ccc(-c2ccc(F)cc2NC(=O)c2c(C)nn(C)c2F)cc1` [Example 8], the pest or weed control at 100 g/ha in the data set with Venturia inaequalis came to 99%; in the data set on Podosphaera leucotricha it was 98%. This molecule yielded a chromatographic logP in data set [1] (setting [2]) of 3.39.
In turn, `CO/N=C/c1ccc(-c2ccccc2NC(=O)c2c(C)nn(C)c2F)c(Cl)c1` [Example 10] registered a chromatographic logP in data set [1] (setting [2]) of 3.26.
Take `CCO/N=C/c1ccc(-c2cc(F)cc(F)c2NC(=O)c2c(C)nn(C)c2F)cc1` [Example 11]: the pest or weed control at 100 g/ha in the data set on Venturia inaequalis is 100%; in the data set with Podosphaera leucotricha it was 100%; in the data set on Sphaerotheca fuiginea, 93%. In addition, the chromatographic logP in data set [1] (setting [2]) amounted to 3.05.
In turn, `Cc1nn(C)c(F)c1C(=O)Nc1ccccc1-c1ccc(/C=N/OCc2cccnc2)cc1` [Example 12] had a chromatographic logP in data set [1] (setting [2]) of 1.75.
Consider `Cc1nn(C)c(F)c1C(=O)Nc1ccccc1-c1ccc(/C=N/OCc2ccccc2)cc1` [Example 13], for which the chromatographic logP in data set [1] (setting [2]) turned out to be 4.02.
Consider `Cc1nn(C)c(F)c1C(=O)Nc1c(F)cc(F)cc1-c1ccc(/C=N/OCc2ccccc2)cc1` [Example 14], for which the chromatographic logP in data set [1] (neutral range, pH 7.5, 0.01 molar aqueous phosphate buffer and acetonitrile, 43° C. (marked b)) was found to be 3.68.
In the case of `Cc1nn(C)c(F)c1C(=O)Nc1c(F)cc(F)cc1-c1ccc(/C=N/OCc2ccccn2)cc1` [Example 15], in data set [1] (setting [2]), the chromatographic logP is 1.81.
On the same count and under the same terms, then `Cc1nn(C)c(F)c1C(=O)Nc1ccccc1-c1ccc(/C=N/OCc2ccncc2)cc1` [Example 16], with 1.72; and `Cc1nn(C)c(F)c1C(=O)Nc1ccccc1-c1ccc(/C=N/OCc2ccccn2)cc1` [Example 17], with 1.89; and `Cc1nn(C)c(F)c1C(=O)Nc1c(F)cc(F)cc1-c1ccc(/C=N/OCc2cccnc2)cc1` [Example 18], with 1.69.
As to `Cc1nn(C)c(F)c1C(=O)Nc1c(F)cc(F)cc1-c1ccc(/C=N/OCc2ccncc2)cc1` [Example 19], the chromatographic logP in data set [1] (setting [2]) stood at 1.6.
In the case of `C/C(=N\OC(C)C)c1ccc(-c2ccccc2NC(=O)c2c(C)nn(C)c2F)cc1` [Example 20], the pest or weed control at 100 g/ha in the data set on Venturia inaequalis was 100%; in the data set on Podosphaera leucotricha, 95%; with Sphaerotheca fuiginea, 77%. Besides, the “% efficacy” value with Puccinia recondita is 100%.
`CCO/N=C(\C)c1ccc(-c2ccccc2NC(=O)c2c(C)nn(C)c2F)cc1` [Example 22]: the pest or weed control at 100 g/ha in the data set on Venturia inaequalis came out at 100%; in the data set on Podosphaera leucotricha, 99%; with Sphaerotheca fuiginea, 95%. Further, the “% efficacy” value with Puccinia recondita is 100%.
On to `Cc1nn(C)c(F)c1C(=O)Nc1ccccc1-c1ccc(/C=N/OC(C)C)cc1` [Example 23], for which the pest or weed control at 100 g/ha was 100% with Venturia inaequalis, 100% with Podosphaera leucotricha and 95% with Sphaerotheca fuiginea.
On to `Cc1nn(C)c(F)c1C(=O)Nc1ccccc1-c1ccc(/C=N/OCCCl)cc1` [Example 25], for which the chromatographic logP in data set [1] (setting [2]) came out at 3.38.
With `CO/N=C/c1ccc(-c2ccccc2NC(=O)c2c(C)nn(C)c2F)c(C)c1` [Example 26], the figures for the pest or weed control at 100 g/ha in the data set with Venturia inaequalis, in the data set with Podosphaera leucotricha and with Sphaerotheca fuiginea were 100%, 100% and 95%, respectively. The same molecule displayed a chromatographic logP in data set [1] (setting [2]) of 3.4. For the same molecule, the “% efficacy” value with Puccinia recondita is given as 100%.
`CO/N=C/c1ccc(-c2ccccc2NC(=O)c2c(C)nn(C)c2F)cc1OC` [Example 27] registered a chromatographic logP in data set [1] (setting [2]) of 3.15.
Still for that read-out and setting: then `CO/N=C/c1ccc(-c2cc(Cl)ccc2NC(=O)c2c(C)nn(C)c2F)cc1` [Example 28], with 3.67.
For the molecule `CO/N=C/c1ccc(-c2c(C)cccc2NC(=O)c2c(C)nn(C)c2F)cc1` [Example 29], the results for the pest or weed control at 100 g/ha in the data set with Venturia inaequalis, in the data set with Podosphaera leucotricha and in the data set on Sphaerotheca fuiginea were 100%, 94% and 83%, respectively. Also, in data set [1] (setting [2]), the chromatographic logP came out at 3.39.
`CO/N=C/c1ccc(-c2ccc(C)cc2NC(=O)c2c(C)nn(C)c2F)cc1` [Example 31] had a chromatographic logP in data set [1] (setting [2]) of 3.34.
Same read-out and setting: then `CO/N=C/c1ccc(-c2ccc(OC)cc2NC(=O)c2c(C)nn(C)c2F)cc1` [Example 32], with 3.1.
`CO/N=C/c1ccc(-c2ccc(Cl)cc2NC(=O)c2c(C)nn(C)c2F)cc1` [Example 33]: in data set [1] (setting [2]), the chromatographic logP turned out to be 3.79.
The molecule `CO/N=C/c1ccc(-c2cc(C)c(F)cc2NC(=O)c2c(C)nn(C)c2F)cc1` [Example 34] had a chromatographic logP in data set [1] (setting [2]) of 3.74.
On the same count and under the same terms, then `CO/N=C/c1ccc(-c2cc(Cl)cc(F)c2NC(=O)c2c(C)nn(C)c2F)cc1` [Example 35], with 3.11; and `CO/N=C/c1ccc(-c2cc(F)c(F)cc2NC(=O)c2c(C)nn(C)c2F)cc1` [Example 36], with 3.48.
`CO/N=C/c1ccc(-c2cc(F)ccc2NC(=O)c2c(C)nn(C)c2F)cc1` [Example 37]: the pest or weed control at 100 g/ha was 100% in the data set with Venturia inaequalis, 100% in the data set on Podosphaera leucotricha and 77% in the data set with Sphaerotheca fuiginea. This molecule also showed a chromatographic logP in data set [1] (setting [2]) of 3.01.
Take `CCO/N=C/c1ccc(-c2ccccc2NC(=O)c2c(C)nn(C)c2F)cc1OC` [Example 38]: the chromatographic logP in data set [1] (setting [2]) was determined as 3.58.
Take `CCO/N=C/c1ccc(-c2ccccc2NC(=O)c2c(C)nn(C)c2F)c(C)c1` [Example 39]: the pest or weed control at 100 g/ha in the data set on Venturia inaequalis turned out to be 100%; with Podosphaera leucotricha, 100%; in the data set on Sphaerotheca fuiginea, 97%. Also, the chromatographic logP in data set [1] (setting [2]) is 3.91.
In data set [1] (setting [2]), `CO/N=C/c1ccc(-c2cc(C(F)(F)F)cc(Cl)c2NC(=O)c2c(C)nn(C)c2F)cc1` [Example 40] came in with a chromatographic logP of 4.63.
`CO/N=C/c1cccc(-c2ccc(Cl)cc2NC(=O)c2c(C)nn(C)c2F)c1` [Example 41] registered a chromatographic logP in data set [1] (setting [2]) of 3.89.
The same measure, in the same setting: then `CO/N=C/c1cccc(-c2ccc(C(F)(F)F)cc2NC(=O)c2c(C)nn(C)c2F)c1` [Example 42], with 4.09; and `CO/N=C/c1cccc(-c2cc(OC(F)(F)F)ccc2NC(=O)c2c(C)nn(C)c2F)c1` [Example 43], with 4.06.
Turning to `CO/N=C/c1cccc(-c2cc(C(F)(F)F)cc(Cl)c2NC(=O)c2c(C)nn(C)c2F)c1` [Example 44], in data set [1] (setting [2]), the chromatographic logP was 4.63.
For `CO/N=C/c1ccc(-c2ccccc2NC(=O)c2c(C)nn(C)c2F)cc1Cl` [Example 46], the pest or weed control at 100 g/ha in the data set with Venturia inaequalis, with Podosphaera leucotricha and in the data set on Sphaerotheca fuiginea was 100% each time. In data set [1] (setting [2]), the chromatographic logP is 3.47.
In the case of `CO/N=C/c1ccc(-c2ccccc2NC(=O)c2c(C)nn(C)c2F)cc1C` [Example 47], the pest or weed control at 100 g/ha with Venturia inaequalis, with Podosphaera leucotricha and in the data set with Sphaerotheca fuiginea was 100% each time. Besides, the chromatographic logP in data set [1] (setting [2]) came out at 3.3.
As to `CO/N=C\c1cc(-c2ccccc2NC(=O)c2c(C)nn(C)c2F)ccc1/C=N/OC` [Example 48], the chromatographic logP in data set [1] (setting [2]) was found to be 3.25.
On to `CO/N=C/c1ccc(-c2c(C)cccc2NC(=O)c2c(C)nn(C)c2F)cc1Cl` [Example 50], for which the pest or weed control at 100 g/ha in the data set with Venturia inaequalis, with Podosphaera leucotricha and in the data set on Sphaerotheca fuiginea was 100% in each case. In data set [1] (setting [2]), the chromatographic logP was 3.89.
In the case of `CCC(C)O/N=C(/C)c1ccc(-c2ccccc2NC(=O)c2c(C)nn(C)c2F)cc1` (stereo not drawn) [Example 51], the chromatographic logP in data set [1] (setting [2]) turned out to be 4.67.
In turn, `Cc1nn(C)c(F)c1C(=O)Nc1ccccc1-c1ccc(/C=N\O)cc1` [Example 53] registered a chromatographic logP in data set [1] (setting [2]) of 2.24.
Still for that read-out and setting: then `CCCCO/N=C\c1ccc(-c2ccccc2NC(=O)c2c(C)nn(C)c2F)cc1` [Example 55], with 4.33.
